Experiment [1] has as its system M. luteus. In words: Full AET challenge test. Conditions: original spike 10^5-10^6 CFU/ml, after 28 days.
The test system of experiment [2] is S. aureus. In words: Full AET challenge test. Conditions: original spike 10^5-10^6 CFU/ml, after 28 days.
Experiment [3] has as its system P. aeruginosa. In words: Full AET challenge test. Conditions: original spike 10^5-10^6 CFU/ml, after 28 days.
Experiment [4] has as its system A. brasiliensis. In words: Full AET challenge test. Conditions: original spike 10^5-10^6 CFU/ml, 28 days at room temperature.
In experiment [5] the test system is S. haemolyticus. In words: Microbial challenge test (Example 1). Conditions: original spike 10^5-10^6 CFU/ml.
For experiment [6], the system named is C. albicans. In words: Full AET challenge test. The note with it: original spike 10^5-10^6 CFU/ml, after 28 days.
The subject of experiment [7] is E. coli. In words: Full AET challenge test. The note with it: original spike 10^5-10^6 CFU/ml, after 28 days.

`CN[C@]1(c2ccccc2Cl)CCCCC1=O.Cl` [S-ketamine hydrochloride, (S)-2-(2-chlorophenyl)-2-(methylamino)cyclohexanone hydrochloride]: the “Effect on the original spike (in words)” value in experiment [1] is reported as “strong antimicrobial properties”; in experiment [2], “strong antimicrobial properties”; in experiment [3], “strong antimicrobial properties”; in experiment [4], “some inhibitory activity”; in experiment [5], “strong antimicrobial properties”; in experiment [6], “strong antimicrobial properties”. Further, the “Effect on the original spike (in words)” value in experiment [7] is reported as “strong antimicrobial properties”.
